From US20060264460A1 (Wyeth, priority 2005, published 2006)

biological target: T1, human Cot/Tpl2 kinase (Homo sapiens, UniProt P41279); test: Tpl2/Cot kinase assay: GST-MEK1 phosphorylation detected by ELISA (DELFIA Eu); format: biochemical; settings: Tpl2/Cot kinase, GST-MEK1 substrate, 50 uM ATP
T1 construct: human Cot/Tpl2 kinase construct encoding residues 30-398; 6His (N); made in house; host or cells: Sf9 insect cells, baculovirus system (BD Biosciences)
Summary of the method: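 His-tagged human Tpl2 from Sf9 cells, Ni-affinity and size-exclusion purified (monomer). 0.4 nM Tpl2 with 35 nM GST-MEK1, 50 uM ATP, MOPS pH 7.2, 1% DMSO, 1 h at 30° C; EDTA stop. MEK1 Ser217/221 phosphorylation detected by anti-phospho-MEK1 and Eu-labelled secondary ELISA; IC50 fitted.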

T1 sequence (P41279 30-398): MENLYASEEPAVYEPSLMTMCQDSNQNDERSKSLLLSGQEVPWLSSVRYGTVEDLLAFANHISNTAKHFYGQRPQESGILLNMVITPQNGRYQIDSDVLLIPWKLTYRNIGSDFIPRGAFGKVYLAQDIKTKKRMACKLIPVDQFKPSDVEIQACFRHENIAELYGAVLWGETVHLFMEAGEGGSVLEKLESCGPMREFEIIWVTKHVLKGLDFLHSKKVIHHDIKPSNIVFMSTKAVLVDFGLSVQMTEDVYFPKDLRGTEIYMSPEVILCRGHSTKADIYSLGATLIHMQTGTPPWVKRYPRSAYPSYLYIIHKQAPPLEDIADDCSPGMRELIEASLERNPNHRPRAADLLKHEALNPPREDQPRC

Compound | IC50 [µM]
CN(C)CCc1nc[nH]c1CNc1cc(Br)c2ncc(C#N)c(Nc3ccc(F)c(Cl)c3)c2c1 [Example 745] | 0.24
N#Cc1cnc2c(Cl)cc(NCc3cn(-c4ccnc(N5CCCCC5)n4)nn3)cc2c1Nc1ccc(F)c(Cl)c1 [Example 747] | 0.32
CN(C)C(=O)OCCCn1cc(CNc2cc(Cl)c3ncc(C#N)c(Nc4ccc(F)c(Cl)c4)c3c2)nn1 [Example 750] | 0.016
CN(C)C(=O)OCCCn1cc(CNc2cc(Br)c3ncc(C#N)c(Nc4ccc(F)c(Cl)c4)c3c2)nn1 [Example 752] | 0.0035
N#Cc1cnc2c(Cl)cc(NCc3cn(Cc4ccc(C(F)(F)F)cc4)nn3)cc2c1Nc1ccc(F)c(Cl)c1 [Example 756] | > 3
CN(C)CCC(c1cccnc1)n1cc(CNc2cc(Br)c3ncc(C#N)c(Nc4ccc(F)c(Cl)c4)c3c2)nn1 (stereo not shown) [Example 757] | 0.0067
CN(C)CCC(c1cccnc1)n1cc(CNc2cc(Cl)c3ncc(C#N)c(Nc4ccc(F)c(Cl)c4)c3c2)nn1 (stereo not shown) [Example 759] | 0.036
CC(c1ccccc1)n1cc(CNc2cc(Cl)c3ncc(C#N)c(Nc4ccc(F)c(Cl)c4)c3c2)nn1 (stereo not shown) [Example 761] | 0.096
CC(C)(C)OC(=O)N1CCCN(CCCn2cc(CNc3cc(Br)c4ncc(C#N)c(Nc5ccc(F)c(Cl)c5)c4c3)nn2)CC1 [Example 762] | 0.52
CC(C)(C)OC(=O)N1CCCN(CCCn2cc(CNc3cc(Cl)c4ncc(C#N)c(Nc5ccc(F)c(Cl)c5)c4c3)nn2)CC1 [Example 763] | 0.12
CC(C)(C)OC(=O)N1CCN(CCCn2cc(CNc3cc(Cl)c4ncc(C#N)c(Nc5ccc(F)c(Cl)c5)c4c3)nn2)CC1 [Example 765] | 0.23
N#Cc1cnc2c(Br)cc(NCc3cn(CCCN4CCNCC4)nn3)cc2c1Nc1ccc(F)c(Cl)c1 [Example 768] | 0.11
N#Cc1cnc2c(Cl)cc(NCc3cn(CCCN4CCNCC4)nn3)cc2c1Nc1ccc(F)c(Cl)c1 [Example 769] | 0.16
N#Cc1cnc2c(Cl)cc(NCC(=O)NCc3ccncc3)cc2c1Nc1ccc(F)c(Cl)c1 [Example 772] | 0.048
N#Cc1cnc2c(Cl)cc(NCC(=O)NCCN3CCOCC3)cc2c1Nc1ccc(F)c(Cl)c1 [Example 777] | 0.53
CN1CCCC1CCNC(=O)CNc1cc(Cl)c2ncc(C#N)c(Nc3ccc(F)c(Cl)c3)c2c1 (stereo not shown) [Example 781] | > 3
N#Cc1cnc2c(Cl)cc(NCc3cn(Cc4ccccn4)cn3)cc2c1Nc1ccc(F)c(Cl)c1 [Example 786] | 0.041
N#Cc1cnc2c(Cl)cc(NCc3cn(Cc4ccncc4)cn3)cc2c1Nc1ccc(F)c(Cl)c1 [Example 787] | 0.0053

Compound | IC50 [µM]
CN(C)C(=O)Cn1cc(CNc2cc(Cl)c3ncc(C#N)c(Nc4ccc(F)c(Cl)c4)c3c2)nn1 [Example 788] | 0.005
CN(C)C(=O)CCn1cc(CNc2cc(Cl)c3ncc(C#N)c(Nc4ccc(F)c(Cl)c4)c3c2)nn1 [Example 789] | 0.01
CN1CC(CCn2cc(CNc3cc(Cl)c4ncc(C#N)c(Nc5ccc(F)c(Cl)c5)c4c3)nn2)N(C)C1=O (stereo not shown) [Example 790] | 0.0061
CCN1CC(CCn2cc(CNc3cc(Cl)c4ncc(C#N)c(Nc5ccc(F)c(Cl)c5)c4c3)nn2)N(c2ccccc2)C1=S (stereo not shown) [Example 792] | 0.13
CN1CCN(CCCn2cc(CNc3cc(Cl)c4ncc(C#N)c(Nc5ccc(F)c(Cl)c5)c4c3)nn2)CC1 [Example 796] | 0.039
N#Cc1cnc2c(Cl)cc(NCC(O)CO)cc2c1Nc1ccc(F)c(Cl)c1 (stereo not shown) [Example 797] | 0.59
N#Cc1cnc2c(Br)cc(NCC(=O)O)cc2c1Nc1ccc(F)c(Cl)c1 [Example 798] | 0.14
N#Cc1cnc2c(Br)cc(NCc3cn(C4CCCC4)cn3)cc2c1Nc1ccc(F)c(Cl)c1 [Example 799] | 0.23
CN(CCCn1cc(CNc2cc(Cl)c3ncc(C#N)c(Nc4ccc(F)c(Cl)c4)c3c2)nn1)C1CCCCC1 [Example 801] | 0.0018
CC(=O)Nc1ccc(-n2cc(CNc3cc(Cl)c4ncc(C#N)c(Nc5ccc(F)c(Cl)c5)c4c3)nn2)cc1 [Example 802] | 0.035
N#Cc1cnc2c(Cl)cc(NC3CCCC3n3cc(CCO)nn3)cc2c1Nc1ccc(F)c(Cl)c1 (stereo not shown) [Example 803] | 0.067
CC(C)n1cnc(CNc2cc(Br)c3ncc(C#N)c(Nc4ccc(F)c(Cl)c4)c3c2)c1 [Example 804] | 0.068
N#Cc1cnc2c(Br)cc(NCc3cn(COCc4ccccc4)nn3)cc2c1Nc1ccc(F)c(Cl)c1 [Example 805] | > 3
CC(CNc1cc(Cl)c2ncc(C#N)c(Nc3ccc(F)c(Cl)c3)c2c1)c1ccncc1 (stereo not shown) [Example 806] | 0.2
N#Cc1cnc2c(Cl)cc(NCc3cn(COCc4ccccc4)nn3)cc2c1Nc1ccc(F)c(Cl)c1 [Example 807] | > 3
CC(=O)N1CCC[C@H]1CNc1cc(Cl)c2ncc(C#N)c(Nc3ccc(F)c(Cl)c3)c2c1 [Example 810] | 0.054
CC1(C)OC[C@H](CNc2cc(Cl)c3ncc(C#N)c(Nc4ccc(F)c(Cl)c4)c3c2)O1 [Example 812] | 0.2
N#Cc1cnc2c(Cl)cc(NCc3cn(CC(=O)N4CCCCCC4)nn3)cc2c1Nc1ccc(F)c(Cl)c1 [Example 814] | 0.0046

Second part, the molecule after the results:

IC50 [µM] | Compound
0.025 | N#Cc1cnc2c(Cl)cc(NCc3cn(CCc4ccccn4)nn3)cc2c1Nc1ccc(F)c(Cl)c1 [Example 746]
0.015 | N#Cc1cnc2c(Br)cc(NCc3cn(-c4cc[n+]([O-])cc4)nn3)cc2c1Nc1ccc(F)c(Cl)c1 [Example 748]
0.016 | N#Cc1cnc2c(Cl)cc(NCc3cn(-c4cc[n+]([O-])cc4)nn3)cc2c1Nc1ccc(F)c(Cl)c1 [Example 749]
0.0036 | N#Cc1cnc2c(Cl)cc(NCc3cn(CCCO)nn3)cc2c1Nc1ccc(F)c(Cl)c1 [Example 751]
0.033 | N#Cc1cnc2c(Br)cc(NCc3cn(Cc4ccccn4)nn3)cc2c1Nc1ccc(F)c(Cl)c1 [Example 753]
0.79 | N#Cc1cnc2c(Cl)cc(NCc3cn(CC4CCCCC4)nn3)cc2c1Nc1ccc(F)c(Cl)c1 [Example 755]
> 3 | COC(=O)c1cc(Cl)c2ncc(C#N)c(Nc3ccc(F)c(Cl)c3)c2c1 [Example 760]
1.3 | CC(C)(C)OC(=O)N1CCN(CCCn2cc(CNc3cc(Br)c4ncc(C#N)c(Nc5ccc(F)c(Cl)c5)c4c3)nn2)CC1 [Example 764]
0.043 | N#Cc1cnc2c(Br)cc(NCc3cn(CCCN4CCCNCC4)nn3)cc2c1Nc1ccc(F)c(Cl)c1 [Example 766]
0.074 | N#Cc1cnc2c(Cl)cc(NCc3cn(CCCN4CCCNCC4)nn3)cc2c1Nc1ccc(F)c(Cl)c1 [Example 767]
2.4 | N#Cc1cnc2c(Cl)cc(C(=O)O)cc2c1Nc1ccc(F)c(Cl)c1 [Example 770]
0.2 | N#Cc1cnc2c(Cl)cc(NCC(=O)NCc3cccnc3)cc2c1Nc1ccc(F)c(Cl)c1 [Example 771]
0.11 | N#Cc1cnc2c(Cl)cc(NCC(=O)Nc3cccnc3)cc2c1Nc1ccc(F)c(Cl)c1 [Example 773]
2.4 | N#Cc1cnc2c(Cl)cc(NCC(=O)Nc3ccncc3)cc2c1Nc1ccc(F)c(Cl)c1 [Example 774]
> 3 | CN(C)CCCNC(=O)CNc1cc(Cl)c2ncc(C#N)c(Nc3ccc(F)c(Cl)c3)c2c1 [Example 775]
> 3 | N#Cc1cnc2c(Cl)cc(NCC(=O)NCCCN3CCOCC3)cc2c1Nc1ccc(F)c(Cl)c1 [Example 776]
1.6 | CN(C)CCNC(=O)CNc1cc(Cl)c2ncc(C#N)c(Nc3ccc(F)c(Cl)c3)c2c1 [Example 778]

IC50 [µM] | Compound
0.23 | COCCCNC(=O)CNc1cc(Cl)c2ncc(C#N)c(Nc3ccc(F)c(Cl)c3)c2c1 [Example 779]
0.33 | N#Cc1cnc2c(Cl)cc(NCC(=O)NCc3ccccn3)cc2c1Nc1ccc(F)c(Cl)c1 [Example 780]
> 3 | N#Cc1cnc2c(Cl)cc(NC3CCCC3Cl)cc2c1Nc1ccc(F)c(Cl)c1 (stereo not shown) [Example 782]
0.0059 | N#Cc1cnc2c(Cl)cc(NCc3cn(CCOC(N)=O)nn3)cc2c1Nc1ccc(F)c(Cl)c1 [Example 784]
0.034 | N#Cc1cnc2c(Br)cc(NCc3cn(Cc4ccccn4)cn3)cc2c1Nc1ccc(F)c(Cl)c1 [Example 785]
0.025 | CCN1CC(CCn2cc(CNc3cc(Cl)c4ncc(C#N)c(Nc5ccc(F)c(Cl)c5)c4c3)nn2)N(c2ccccc2)C1=O (stereo not shown) [Example 791]
0.07 | CN1CCCN(CCCn2cc(CNc3cc(Br)c4ncc(C#N)c(Nc5ccc(F)c(Cl)c5)c4c3)nn2)CC1 [Example 793]
0.048 | CN1CCCN(CCCn2cc(CNc3cc(Cl)c4ncc(C#N)c(Nc5ccc(F)c(Cl)c5)c4c3)nn2)CC1 [Example 794]
0.029 | CN1CCN(CCCn2cc(CNc3cc(Br)c4ncc(C#N)c(Nc5ccc(F)c(Cl)c5)c4c3)nn2)CC1 [Example 795]
0.15 | CC1CC(C)CN(CCCn2cc(CNc3cc(Cl)c4ncc(C#N)c(Nc5ccc(F)c(Cl)c5)c4c3)nn2)C1 (stereo not shown) [Example 800]
0.33 | CCN1CCC[C@H]1CNc1cc(Cl)c2ncc(C#N)c(Nc3ccc(F)c(Cl)c3)c2c1 [Example 809]
1.2 | CCN(C[C@@H]1CCCN1CC)c1cc(Cl)c2ncc(C#N)c(Nc3ccc(F)c(Cl)c3)c2c1 [Example 811]
0.0035 | CC(C)NC(=O)Cn1cc(CNc2cc(Cl)c3ncc(C#N)c(Nc4ccc(F)c(Cl)c4)c3c2)nn1 [Example 813]
0.0053 | N#Cc1cnc2c(Cl)cc(NCc3cn(CC(=O)N4CCCCCCC4)nn3)cc2c1Nc1ccc(F)c(Cl)c1 [Example 815]
0.015 | COCCNC(=O)Cn1cc(CNc2cc(Cl)c3ncc(C#N)c(Nc4ccc(F)c(Cl)c4)c3c2)nn1 [Example 816]
0.0069 | CN1CCCC1CCNC(=O)Cn1cc(CNc2cc(Cl)c3ncc(C#N)c(Nc4ccc(F)c(Cl)c4)c3c2)nn1 (stereo not shown) [Example 817]
0.0068 | CN(C)CCNC(=O)Cn1cc(CNc2cc(Cl)c3ncc(C#N)c(Nc4ccc(F)c(Cl)c4)c3c2)nn1 [Example 818]
